Data reported in patent US4724238A, “Method of treating inflammatory diseases with labdan derivatives” (Hoechst Aktiengesellschaft, priority 1985, dated 1988).

Assays:
[1] = system: Adjuvant-induced arthritis in rats; assay: Adjuvant-induced arthritis test in rats, developing arthritis; format: in vivo, rat (Charles Foster, female); details: i.p., once daily for 21 days
rat paw oedema = assay: Acute carrageenin-induced rat paw oedema test (systemic); format: in vivo, rat (Charles Foster, male); details: ip, paw volume at 3 and 6 hours after carrageenin
Description: (a) Acute carrageenin-induced rat paw oedema test Charles Foster male rats (120-150 g) are fasted for 18 hrs. with water ad libitum. The test compound suspended in 0.5% carboxymethyl cellulose (CMC) is given intraperitoneally. The control group receives 0.5% CMC suspension. 0.05 ml of the 0.5% carrageenin suspension is injected subcutaneously into the planter region of the left hind paw. The paw volume is determined before carrageenin injection and at 3 hours and 6 hours after injection using a Maclab volume differential meter. The percentage decrease in paw volume is calculated with the following formula: [formula] The ED50 value is calculated from the dose-response curve. Six animals are used per group.

[2] = system: Adjuvant-induced arthritis in rats; assay: Adjuvant-induced arthritis test in rats, established arthritis; format: in vivo, rat (Charles Foster, female); details: i.p., once daily from day 15 to day 21
rat ear inflammation = assay: Croton oil-induced local inflammation test in rats (topical); format: in vivo, rat (Charles Foster's strain); details: applied with the irritant, 4 hours
Description: (b) Croton oil-induced local inflammation test in rats A volume of 0.05 ml of croton oil irritant (2.0 ml pyridine, 0.5 ml distilled water+7.4 ml diethyl ether+0.1 ml croton oil) is applied under ether anaesthesia to the anterior and posterior sides of the ear of rats weighing 45 to 60 g (Charles Foster's strain) with the help of a micro glass syringe and a blunt 20 gauge needle/Tonelli G., Thibault L. and Ringer I, Endocrinology 77, 625-634 (1965)/. The right untreated ear serves as control. The drug treated group receives different concentrations of compounds along with the irritant. Four hours later the animals are sacrificed. The ears are removed and punched with an 8 mm diameter cork borer. The punched portions are immediately weighed. The increase in the weight of ear is determined by the difference in the weight between the left and right ear. The topical anti-inflammatory activity of the test compound is expressed as the percent inhibition of the increase in ear weight of the irritant treated ear according to the following formula [formula] The ED50 value is calculated from the dose response curve. Six animals are used per group.

[3] = system: Acetic acid induced writhing in mice; assay: Analgesic activity, acetic acid writhing test; format: in vivo, mouse (male); details: Mus musculus, sc, 30 minutes before 0.2 ml of 3% acetic acid i.p.; observed 15 minutes
Description: Analgesic activity--Acetic acid writhing test
A test compound suspended in 0.5% carboxy methyl cellulose is given subcutaneously to the male mice (20-25 g). The control group received only the 0.5% CMC. After 30 minutes, 0.2 ml of 3% acetic acid is administered intraperitoneally. The animals are observed for 15 minutes for a characteristic stretching or writhing syndrome which is indicative of pain induced by acetic acid. Six animals are used per group.
In the test group, mice which show less than or equal to 50 percent of the mean control writhing value are considered to be protected. (Blumberg et al. Proc. Soc. Exp. Biol. Med., 118, 763-766, 1965). The percent analgesic activity is calculated as follows: [formula] The ED50 value is calculated from the dose response curve.

SMILES	% inhibition of paw volume, developing arthritis ([1]; 2.5 mg/kg)	ED50 (rat paw oedema)	% inhibition of paw volume, established arthritis ([2]; 2.4 mg/kg)	ED50, croton oil induced rat ear inflammation (rat ear inflammation)	% inhibition of paw volume, developing arthritis ([1]; 3.0 mg/kg)	% inhibition of paw volume, established arthritis ([2]; 3.0 mg/kg)	ED50 [3]
C=C[C@@]1(C)CC(=O)[C@]2(O)[C@@]3(C)[C@@H](O)CCC(C)(C)[C@@H]3[C@H](O)[C@H](OC(C)=O)[C@@]2(C)O1 [Forskolin, 7β-acetoxy-8,13-epoxy-1α,6β,9α-trihydroxy-labd-14-en-11one]	23%	4.8 mg/kg	27%	1.15 mg/ear	–	–	–
C=C[C@@]1(C)CC(=O)[C@@H]2[C@@]3(C)CCCC(C)(C)[C@@H]3[C@H](O)[C@H](OC(C)=O)[C@@]2(C)O1 [1,9-Dideoxyforskolin, 7β-acetoxy-1,9-dideoxy-8,13-epoxy-6β-hydroxy-labd-14-en-11-one]	–	2.2 mg/kg	–	1.6 mg/ear	62%	30%	9 mg/kg
